These results are taken from ChEMBL document CHEMBL3507680, “University of Dundee, Gates Library screen for HepG2 cell viability”.

The nature of the data set: Human HepG2 cell viability assay in 384 well format. Type of data set: toxicity, cell-based. Details: dose 125 nL, time 70.5 hour; concentration not given beside the values. The settings on record: HepG2 cells, read-out: Inhibition.
For `Cc1ccc(S(=O)(=O)n2ccn(C(=O)COc3ccccc3)c2=O)cc1`, the cytotoxicity at 70.5 h was -9.68%. With `COc1ccccc1CC(=O)N1CCC(NCc2ccccn2)CC1` the figure was 21%; with `CC(C)N1CCC(c2nccnc2Nc2ncccn2)CC1`, -4.91%; with `Cc1c(C2=NS(=O)(=O)N(C)C(C(=O)Nc3ccc(Br)cc3)=C2)cnn1C`, 22.2%. With `CSc1ncc(C(=O)N2C[C@H]3CC[C@@H]2CN(S(=O)(=O)N(C)C)C3)cn1` the figure was -1.22%; with `COCCc1noc(-c2ccc(N[C@H]3CCCCNC3=O)nc2)n1`, 1.36%; with `O=C([C@@H]1CCCO1)N1CCOCC2(CCN(Cc3cccnc3)C2)C1` (stereo partly specified), 0.333%. With `CN(Cc1csc(-c2cccs2)n1)Cc1cccnc1N`, the cytotoxicity at 70.5 h was -14.6%. Consider `COc1ccc(F)cc1C(=O)N(C)Cc1cc(C)on1`, for which the cytotoxicity at 70.5 h is -15.7%. To `O=c1ccc(-c2cccs2)nn1CN1CCN(Cc2ccccc2)CC1` belongs -13.1%; to `CC(C)(C)c1n[nH]c(C2CN(C(=O)c3csnn3)CCO2)n1` (stereo unspecified), 22.6%. To `CC(C)c1nncn1CCNC(=O)c1c(O)cc(F)cc1F` belongs -4.67%; to `CN(Cc1cnn(C)c1)C(=O)NC1CCN(c2ncccn2)CC1`, 12.2%. Take `CC(=O)NCCSCCOc1cccc(Br)c1`: the cytotoxicity at 70.5 h was 17.6%. With `CCNC(=O)N1CCC2(C1)c1ccccc1S(=O)(=O)N2CCOC` (stereo unspecified) the figure was 5.14%.

Take `CCN(CC(C)C#N)C(=O)CNc1ccc(F)c(C)c1` (stereo unspecified): the cytotoxicity at 70.5 h came to 0.826%. For `CN1CC(Oc2ccccc2)=NC(SCC(=O)Nc2ccccc2Cl)=N1`, the cytotoxicity at 70.5 h came out at 5.43%. To `O=C1NC(c2ccccc2)=N[C@@]12CC[C@@H]1CN(CC3CCOCC3)C[C@@H]12` belongs 23.3%; to `CN(CCNC(=O)NCc1ccsc1)C1CCCC1`, -8.28%; to `CC(=O)N1CCCc2sc(C(=O)NC3CC3)nc21`, -6.9%. With `Cn1cc(NC(=O)NC2CCCN(c3ccccc3Cl)C2=O)cn1` (stereo unspecified), the cytotoxicity at 70.5 h is -5.63%. To `CCOc1ccnc(NCCc2nc(C)cc(=O)[nH]2)n1` belongs -2.38%. To `O=C(NC1CC1)N1C[C@H]2CN(Cc3cccc(F)c3)C(=O)[C@H]2C1` belongs -13.8%; to `Cc1ccc(NC(=O)N2CC[C@@H](O)C2)c(-c2nc(C3CC3)no2)c1`, -3.95%. As to `CS(=O)(=O)NC[C@@H]1OC[C@H]2CN(C(=O)c3cnccn3)CC[C@H]21`, the cytotoxicity at 70.5 h is -1.54%. To `CN(C)c1ccc(C(=O)N2CCCN(Cc3cnn(C)c3)CC2)nn1` belongs -8.42%; to `CC(c1cccnc1)N(C)Cc1csc(-c2ccccn2)n1` (stereo unspecified), 8.67%; to `COc1ccc(N2Cc3nc(N4CCCC4)ncc3C2=O)cc1Cl`, 1.18%. With `Cc1cc2c(cc1C)OC1(C=C2)CCN(CC(=O)N2CCOCC2)CC1` the figure was -8.77%; with `CN1CC2(CCCN(Cc3ccc(Oc4ccccc4)cc3)C2)OC1=O` (stereo unspecified), 16.8%; with `O=C([C@@H]1CC[C@@H]2[C@@H](CCN2Cc2ccncc2)O1)N1CCCCO1`, -6.89%. To `Cc1cc(CNCCNS(C)(=O)=O)sc1Br` belongs 4.81%; to `CCCN1CCC(N2CCOC(Cc3cccc(OC)c3)C2)CC1` (stereo unspecified), 9.86%.

In the case of `O=C(Cc1cccc(F)c1F)NS(=O)(=O)c1cncc(Cl)c1`, the cytotoxicity at 70.5 h is -2.5%. To `CCc1nnc(N2CCN(c3ccccc3)C(=O)C2)o1` belongs -7.77%. Regarding `CCC(Nc1nnnn1-c1ccccc1)C(=O)NC1CCSCC1` (stereo unspecified), the cytotoxicity at 70.5 h was -9.32%. Consider `COC(=O)COc1cc(NCc2c(C)noc2C)c(Cl)cc1C`, for which the cytotoxicity at 70.5 h was -5.04%. For the compound `Cc1ccc(CNCC2Cn3nnc(-c4cccc(F)c4)c3CO2)o1` (stereo unspecified), the cytotoxicity at 70.5 h is -2%. As to `CCc1nc(CNc2ccc(F)c(F)c2)no1`, the cytotoxicity at 70.5 h was -7.5%.

Regarding `CCN1CC2(CCCCN2C(=O)c2ccn(C)n2)CC1=O` (stereo unspecified), the cytotoxicity at 70.5 h was 0.273%.

`CCOCCN1CCN(Cc2csc(-c3cnn(C)c3)n2)CC1`: the cytotoxicity at 70.5 h was -13.2%. To `Cc1ccccc1C1CCN(CCNC(=O)CS(C)(=O)=O)C1` (stereo unspecified) belongs -4.32%. To `CCc1nc(C2CCCN(c3nccc(N4CCCC4)n3)C2)no1` (stereo unspecified) belongs -0.206%; to `CC1=C(C(=O)NCCc2n[nH]c3c2CCCC3)C(C)NC(=O)N1` (stereo unspecified), 14.6%. To `CCOCCNc1nc(C2CCCC2)nc2c1cnn2C` belongs 0.172%; to `O=C(c1ccccc1F)N1CC(c2nc(-c3ccc[nH]c3=O)no2)C1`, -2.53%. On to `CC(=O)NCCNc1cc(C)nc2cc(C)nn12`, for which the cytotoxicity at 70.5 h was found to be 0.136%.

As to `CCN(CC(C)C#N)C(=O)CNc1cc(Cl)ccc1C(N)=O` (stereo unspecified), the cytotoxicity at 70.5 h is 3.41%. Turning to `c1cnc(N2CCN3C[C@H](Oc4cncnc4)C[C@H]3C2)nc1`, the cytotoxicity at 70.5 h was -1.15%. With `c1ccc(CN2CCN(Cc3cnc(C4CCCCO4)nc3)CC2)cc1` (stereo unspecified) the figure was 1.9%.

Regarding `Cc1ccc(-c2cc(CNC(=O)NC3CCCCNC3=O)on2)cc1` (stereo unspecified), the cytotoxicity at 70.5 h was -8.17%. In the case of `CC(NC(=O)NCCCn1cccn1)c1cccnc1` (stereo unspecified), the cytotoxicity at 70.5 h worked out at 18.1%. With `CCOc1ccc(CC(=O)N2CCN(c3nccn3C)CC2)cc1` the figure was -2.2%. Take `CC/C=C(\C)CN1CCC(CNC(=O)c2ccnc(N)c2)C1` (stereo unspecified): the cytotoxicity at 70.5 h is 15%. Take `CN(C)C(=O)N1CC2(CCNCC2)c2cc(F)ccc21`: the cytotoxicity at 70.5 h is -8.45%. Regarding `c1cncc(COc2ccccc2CNC2CCc3ncnn3C2)c1` (stereo unspecified), the cytotoxicity at 70.5 h was -5.98%.

Regarding `CNC(=O)C(C)NC(=O)c1ccc(Oc2cccnc2)cc1` (stereo unspecified), the cytotoxicity at 70.5 h was -10.1%. With `CCN(C)C(=O)[C@H]1C[C@@](CC(C)C)(C(=O)OC)N(C)[C@H]1c1cccnc1` the figure was -3.05%. With `Cc1cc2c(cc1C(=O)N1CCC3(CC(=O)NC3=O)C1)OCCO2` (stereo unspecified) the figure was 10.6%; with `Cc1nccn1-c1ccc(CNC(=O)c2ccc(O)nc2)cn1`, -9.46%; with `Cc1c(C(=O)N2CCCC2c2cnn(C)c2)cnn1-c1ccccc1` (stereo unspecified), 17.9%. In the case of `CC(C)N(C)Cc1cncc2c1CCN(C(=O)c1ccc[nH]1)C2`, the cytotoxicity at 70.5 h is -1.2%.

`COc1cc(C)nc(N2CCN(C(=O)CCc3nccs3)CC2)n1`: the cytotoxicity at 70.5 h amounted to 9.16%.

Consider `CCCc1cc(=O)[nH]c(-c2cccc(CN3CCCCCC3)c2)n1`, for which the cytotoxicity at 70.5 h worked out at 25.8%.

For the compound `Cc1cccc(NC(=O)CCNCc2c(C)nn(C)c2N(C)C)n1`, the cytotoxicity at 70.5 h is 2.77%. With `CCS(=O)(=O)NCCCNCc1c(C)nn(C)c1N(C)C` the figure was 21.5%; with `COc1ccc(CC(C)Nc2cccc(SC)c2)cc1` (stereo unspecified), -5.87%; with `OC1=C2C(=Nc3n[nH]c(O)c3C2c2ccccc2Cl)CCC1` (stereo unspecified), 9.03%. To `CC(Cn1cncn1)NC(=O)NCc1csc(N(C)C)n1` (stereo unspecified) belongs -8.98%; to `CC(C)NC(=O)N1CCC2(CCCO2)C1` (stereo unspecified), 14.2%; to `Cc1nc(C)n(C2CCCN(C(=O)c3ccc4[nH]nnc4c3)C2)n1` (stereo unspecified), 0.449%.
